Laboratory results published in patent publication US9856321B2, “Anti-DR5 antibodies, polynucleotides and methods” (Daiichi Sankyo Company, Limited, priority 2010, dated 2018).

What was measured:
[1] = test system: human colon cancer cell line HCT-15; test: Antitumor activity in combination with 5-FU in nude mice implanted with HCT-15, comparison with conatumumab; format: in vivo; conditions: day 28; antibody 3 mg/kg tail vein days 7, 14, 21; 5-FU 160 mg/kg tail vein day 7
[2] = test system: human colon cancer cell line DLD-1; test: Antitumor activity in nude mice implanted with DLD-1 (in combination with CPT-11); format: in vivo; conditions: day 55; cB273 10 mg/kg ip day 35; CPT-11 80 mg/kg ip days 35, 40, 43
Description: CPT-11 was intraperitoneally administered at a dose of 80 mg/kg on days 35, 40, and 43 after the implantation (n=10).

[3] = test system: human colon cancer cell line HCT-15; test: Antitumor activity in nude mice implanted with HCT-15 (in combination with CPT-11); format: in vivo; conditions: day 31; cB273 10 mg/kg tail vein day 7; CPT-11 80 mg/kg ip days 7, 10, 14
Description: CPT-11 was intraperitoneally administered at a dose of 80 mg/kg on days 7, 10, and 14 after the implantation (n=10).

[4] = test system: human colon cancer cell line HCT-116; test: Antitumor activity in nude mice implanted with HCT-116 (in combination with CPT-11); format: in vivo; conditions: day 28; cB273 10 mg/kg tail vein day 7; CPT-11 65 mg/kg ip days 7, 10, 14
Description: CPT-11 was intraperitoneally administered at a dose of 65 mg/kg on days 7, 10, and 14 after the implantation (n=10).

[5] = test system: human non-small cell lung cancer cell line NCI-H1975; conditions: day 32; antibody 3 mg/kg tail vein days 11, 18, 25; paclitaxel 6.25 mg/kg tail vein days 11-14
Description: The major axis and the minor axis of the implanted tumor were measured twice a week using an electronic digital caliper (manufactured by Mitutoyo Corporation), and the tumor volume was calculated according to the following calculation formula. Tumor volume (mm^3)=1/2×(Minor axis)^2 (mm)×(Major axis)^2 (mm)
3×10^6 cells of a human non-small cell lung cancer cell line NCI-H1975 (purchased from ATCC) were implanted subcutaneously in the axillary region of nude mice. […] Paclitaxel was administered to tumor-bearing mice through the tail vein on days 11, 12, 13, and 14 after the implantation at a dose of 6.25 mg/kg. The experiment was carried out at n=6. In the same manner as described above, the major axis and the minor axis of the implanted tumor were measured, and the tumor volume was calculated.

[6] = test system: human melanoma cell line A375; test: Antitumor activity in nude mice implanted with A375 (in combination with vinblastine); format: in vivo; conditions: day 46; cB273 10 mg/kg tail vein days 10, 17, 24; vinblastine 10 mg/kg tail vein day 10
[7] = test system: human colon cancer cell line HCT-15; test: Comparison of antitumor activity in nude mice implanted with HCT-15 between cB273 and conatumumab; format: in vivo; conditions: day 30 after the implantation
Description: 1×10^7 cells of a human colon cancer cell line HCT-15 (purchased from ATCC) were implanted subcutaneously in the axillary region of nude mice. […] In the same manner as described above, the major axis and the minor axis of the implanted tumor were measured, and the tumor volume was calculated.

[8] = test system: human lung cancer cell line NCI-H1975; test: Comparison of antitumor activity in nude mice implanted with NCI-H1975 between cB273 and conatumumab; format: in vivo; conditions: day 32 after the implantation
Description: 3×10^6 cells of a human lung cancer cell line NCI-H1975 (purchased from ATCC) were implanted subcutaneously in the axillary region of nude mice. […] In the same manner as described above, the major axis and the minor axis of the implanted tumor were measured, and the tumor volume was calculated.

[9] = test system: human T-lymphoma cell line Jurkat; test: In vitro cytocidal activity of mouse antibody B273, Jurkat; format: cell-based; conditions: 10,000 to 0.01 ng/ml with goat anti-mouse IgG Fc, 24 hours
Description: (§1) Each of a human T-lymphoma cell line Jurkat and a human glioblastoma cell line U-87MG was prepared at 4.4×10^4 cells/ml in RPMI 1640 medium containing 10% FBS or MEM (Minimum Essential Medium) medium containing 10% FBS and added to a white clear bottom 96-well microplate (manufactured by Corning Incorporated) at […], and cultured overnight under the conditions of 37° C. and 5% CO2. The mouse B273 antibody or the mouse IgG1 antibody (manufactured by R&D Systems, Inc.) was mixed with the same concentration of AffiniPure goat anti-mouse IgG Fc specific (manufactured by Jackson ImmunoResearch Laboratories, Inc., #115-005-071), and the resulting mixture was added at 5 μl/well such that the final concentration of the mouse B273 antibody or the mouse IgG1 antibody was 10,000 to 0.01 ng/ml, and the cells were cultured under the conditions of 37° C. and 5% CO2 for 24 hours. The amount of ATP derived from viable cells in each well was measured by a luminometer (manufactured by Perkin Elmer, Inc.) using a CellTiter-Glo® luminescent cell viability assay kit (manufactured by Promega Corporation, #G7571) according to the attached protocol. The cytocidal activity was evaluated by taking the value obtained from the well to which the medium was added in place of the antibody solution as 100% (FIG. 1). In each graph, the cell viability is expressed as a mean±standard deviation (n=3).

[10] = test system: human glioblastoma cell line U-87MG; test: In vitro cytocidal activity of mouse antibody B273, U-87MG; format: cell-based; conditions: 10,000 to 0.01 ng/ml with goat anti-mouse IgG Fc, 24 hours
Description: as §1

Molecule: O=c1[nH]cc(F)c(=O)[nH]1 [5-FU]
- tumor growth inhibitory rate [1]: 54%

Molecule: CCc1c2c(nc3ccc(OC(=O)N4CCC(N5CCCCC5)CC4)cc13)-c1cc3c(c(=O)n1C2)COC(=O)[C@]3(O)CC [CPT-11, irinotecan (CPT-11), reference compound]
- tumor growth inhibitory rate [2]: 29.5%
- tumor growth inhibitory rate [3]: 83.5%
- tumor growth inhibitory rate [4]: 89.8%

Molecule: CC(=O)O[C@H]1C(=O)[C@@]2(C)[C@H]([C@H](OC(=O)c3ccccc3)[C@]3(O)C[C@H](OC(=O)[C@H](O)[C@@H](NC(=O)c4ccccc4)c4ccccc4)C(C)=C1C3(C)C)[C@]1(OC(C)=O)CO[C@@H]1C[C@@H]2O [paclitaxel]
- tumor growth inhibitory rate [5]: 49%

Molecule: CC[C@]1(O)C[C@@H]2CN(CCc3c([nH]c4ccccc34)[C@@](C(=O)OC)(c3cc4c(cc3OC)N(C)[C@H]3[C@@](O)(C(=O)OC)[C@H](OC(C)=O)[C@]5(CC)C=CCN6CC[C@]43[C@@H]65)C2)C1 [vinblastine, reference compound]
- tumor growth inhibitory rate [6]: 43.6%

Molecule: conatumumab [reference compound]
- tumor growth inhibitory rate ([7]; 3 mg/kg tail vein days 6, 13, 20): 27.4%
- tumor growth inhibitory rate ([7]; 10 mg/kg tail vein days 6, 13, 20): 26.9%
- tumor growth inhibitory rate ([7]; 30 mg/kg tail vein days 6, 13, 20): 20.3%
- tumor growth inhibitory rate ([8]; 3 mg/kg tail vein days 12, 19, 26): 13.5%
- tumor growth inhibitory rate ([8]; 10 mg/kg tail vein days 12, 19, 26): 12.6%
- tumor growth inhibitory rate [1]: 27%
- tumor growth inhibitory rate [5]: 40%

B1: B273: mouse anti-human DR5 monoclonal antibody from hybridoma B273; heavy chain SEQ ID NO: 8, light chain SEQ ID NO: 10; IgG1, κ (antibody, listed as Mus musculus)
heavy: MGWSCIFLFLLSVTVGVFSEVQLQQSGPELVKPGASVKISCKASGYSFIGYFMNWMKQSHGKSLEWIGRFNPYNGDTFYNQKFKGKATLTVDKSSTTAHMELLSLTSEDSAVYFCGRSAYYFDSGGYFDYWGQGTTLTVSSAKTTPPSVYPLAPGSAAQTNSMVTLGCLVKGYFPEPVTVTWNSGSLSSGVHTFPAVLQSDLYTLSSSVTVPSSTWPSETVTCNVAHPASSTKVDKKIVPRDCGCKPCICTVPEVSSVFIFPPKPKDVLTITLTPKVTCVVVDISKDDPEVQFSWFVDDVEVHTAQTQPREEQFNSTFRSVSELPIMHQDWLNGKEFKCRVNSAAFPAPIEKTISKTKGRPKAPQVYTIPPPKEQMAKDKVSLTCMITDFFPEDITVEWQWNGQPAENYKNTQPIMDTDGSYFVYSKLNVQKSNWEAGNTFTCSVLHEGLHNHHTEKSLSHSPGK
light: MKLPVRLLVLMFWIPASSSDVVMTQTPLSLPVSLGDQASISCRSSQSLVHSNGNTYLHWYLQKPGQSPKLLIYKVSNRFSGVPDRFSGSGSGTDFTLKISRVEAEDLGIYFCSQSTHVPWTFGGGTKLEIKRADAAPTVSIFPPSSEQLTSGGASVVCFLNNFYPKDINVKWKIDGSERQNGVLNSWTDQDSKDSTYSMSSTLTLTKDEYERHNSYTCEATHKTSTSPIVKSFNRNEC
- cytocidal effect (cell viability, ATP) [9]: exhibits a cytocidal effect on both cell lines in an antibody concentration-dependent manner
- cytocidal effect (cell viability, ATP) [10]: exhibits a cytocidal effect on both cell lines in an antibody concentration-dependent manner
